PubChem BioAssay (NCI)
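Grown in 96-well plates, cells were treated for 48 hours with each compound at five concentrations. Insufficient inhibition: endpoint recorded as highest concentration tested. The concentration for full growth arrest is given as TGI.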

How the values were obtained:
Assay in all cases: NCI tumour cell line growth inhibition, 48 h
[1] = test system: OVCAR-8 ovarian
[2] = test system: UACC-257 melanoma
[3] = test system: NCI/ADR-RES ovarian
[4] = test system: NCI-H522 lung
[5] = test system: U251 CNS
[6] = test system: SR leukemia
[7] = test system: HS 578T breast
[8] = test system: A549 NSCLC
[9] = test system: SF-295 CNS
[10] = test system: DU-145 prostate
[11] = test system: PC-3 prostate
[12] = test system: 786-0 renal
[13] = test system: SW-620 colon
[14] = test system: SK-MEL-2 melanoma
[15] = test system: CCRF-CEM leukemia
[16] = test system: HL-60(TB) leukemia
[17] = test system: HOP-62 NSCLC
[18] = test system: HT29 colon
[19] = test system: OVCAR-5 ovarian
[20] = test system: K-562 leukemia
[21] = test system: M14 melanoma
[22] = test system: OVCAR-4 ovarian
[23] = test system: RPMI-8226 leukemia
[24] = test system: SK-MEL-5 melanoma
[25] = test system: KM12 colon
[26] = test system: HCC-2998 colon
[27] = test system: OVCAR-3 ovarian
[28] = test system: COLO 205 colon
[29] = test system: MDA-MB-231 breast
[30] = test system: UO-31 renal
[31] = test system: MALME-3M melanoma
[32] = test system: T-47D breast
[33] = test system: BT-549 breast
[34] = test system: RXF 393 renal
[35] = test system: MOLT-4 leukemia
[36] = test system: SNB-75 CNS
[37] = test system: HCT-116 colon
[38] = test system: MCF7 breast
[39] = test system: MDA-N
[40] = test system: UACC-62 melanoma
[41] = test system: MDA-MB-435
[42] = test system: SN12C renal
[43] = test system: HCT-15 colon
[44] = test system: NCI-H226 lung
[45] = test system: ACHN renal
[46] = test system: NCI-H23 lung
[47] = test system: SK-MEL-28 melanoma
[48] = test system: EKVX NSCLC
[49] = test system: IGROV1 ovarian
[50] = test system: SK-OV-3 ovarian
[51] = test system: SF-268 CNS
[52] = test system: SNB-19 CNS
[53] = test system: NCI-H460 lung
[54] = test system: TK-10 renal
[55] = test system: A498 renal
[56] = test system: HOP-92 NSCLC
[57] = test system: CAKI-1 renal
[58] = test system: LOX IMVI melanoma
[59] = test system: SF-539 CNS

SMILES: CCCCCCC(N)(CCCCCC)C(=O)Nn1c(C)ccc1C
- TGI [1]: > 100 µM
- TGI [2]: > 100 µM
- TGI [3]: > 100 µM
- TGI [4]: > 100 µM
- TGI [5]: > 100 µM
- TGI [6]: > 100 µM
- TGI [7]: > 100 µM
- TGI [8]: 65.3 µM
- TGI [9]: > 100 µM
- TGI [10]: > 100 µM
- TGI [11]: > 100 µM
- TGI [12]: > 100 µM
- TGI [13]: > 100 µM
- TGI [14]: > 100 µM
- TGI [15]: > 100 µM
- TGI [16]: > 100 µM
- TGI [17]: > 100 µM
- TGI [18]: > 100 µM
- TGI [19]: > 100 µM
- TGI [20]: > 100 µM
- TGI [21]: > 100 µM
- TGI [22]: > 100 µM
- TGI [23]: > 100 µM
- TGI [24]: > 100 µM
- TGI [25]: > 100 µM
- TGI [26]: > 100 µM
- TGI [27]: > 100 µM
- TGI [28]: > 100 µM
- TGI [29]: > 100 µM
- TGI [30]: > 100 µM
- TGI [31]: > 100 µM
- TGI [32]: > 100 µM
- TGI [33]: > 100 µM
- TGI [34]: > 100 µM
- TGI [35]: > 100 µM
- TGI [36]: > 100 µM
- TGI [37]: > 100 µM
- TGI [38]: 59.4 µM
- TGI [39]: > 100 µM
- TGI [40]: > 100 µM
- TGI [41]: > 100 µM
- TGI [42]: > 100 µM
- TGI [43]: > 100 µM
- TGI [44]: > 100 µM
- TGI [45]: > 100 µM
- TGI [46]: > 100 µM
- TGI [47]: > 100 µM
- TGI [48]: 58.4 µM
- TGI [49]: > 100 µM
- TGI [50]: > 100 µM
- TGI [51]: > 100 µM
- TGI [52]: > 100 µM
- TGI [53]: > 100 µM
- TGI [54]: > 100 µM
- TGI [55]: > 100 µM

SMILES: CCCCCCCCCC(=O)OCC1(CO)C/C(=C/CC(C(C)C)C(C)C)C(=O)O1 (centres undefined)
- TGI [1]: > 100 µM
- TGI [2]: > 100 µM
- TGI [3]: > 100 µM
- TGI [4]: 39.8 µM
- TGI [5]: 89.4 µM
- TGI [6]: > 100 µM
- TGI [7]: > 100 µM
- TGI [8]: > 100 µM
- TGI [56]: > 100 µM
- TGI [9]: > 100 µM
- TGI [10]: > 100 µM
- TGI [11]: > 100 µM
- TGI [12]: > 100 µM
- TGI [13]: 81.6 µM
- TGI [14]: > 100 µM
- TGI [15]: 73.1 µM
- TGI [57]: 56.6 µM
- TGI [17]: > 100 µM
- TGI [18]: > 100 µM
- TGI [19]: > 100 µM
- TGI [20]: 97 µM
- TGI [21]: > 100 µM
- TGI [22]: > 100 µM
- TGI [24]: > 100 µM
- TGI [25]: 83.7 µM
- TGI [26]: > 100 µM
- TGI [27]: > 100 µM
- TGI [28]: 28.7 µM
- TGI [29]: > 100 µM
- TGI [30]: 95.8 µM
- TGI [31]: 82.3 µM
- TGI [58]: > 100 µM
- TGI [32]: > 100 µM
- TGI [33]: > 100 µM
- TGI [34]: > 100 µM
- TGI [35]: 54 µM
- TGI [36]: > 100 µM
- TGI [37]: > 100 µM
- TGI [38]: > 100 µM
- TGI [39]: > 100 µM
- TGI [40]: > 100 µM
- TGI [41]: > 100 µM
- TGI [42]: > 100 µM
- TGI [43]: > 100 µM
- TGI [44]: > 100 µM
- TGI [45]: > 100 µM
- TGI [46]: > 100 µM
- TGI [47]: > 100 µM
- TGI [48]: > 100 µM
- TGI [49]: > 100 µM
- TGI [50]: > 100 µM
- TGI [51]: > 100 µM
- TGI [52]: > 100 µM
- TGI [53]: > 100 µM
- TGI [54]: > 100 µM
- TGI [55]: > 100 µM

SMILES: CC(=O)NNC=N/C(C#N)=C(\N)C#N
- TGI [1]: > 100 µM
- TGI [2]: > 100 µM
- TGI [3]: > 100 µM
- TGI [4]: > 100 µM
- TGI [5]: > 100 µM
- TGI [6]: > 100 µM
- TGI [7]: > 100 µM
- TGI [8]: > 100 µM
- TGI [9]: > 100 µM
- TGI [10]: > 100 µM
- TGI [11]: > 100 µM
- TGI [12]: > 100 µM
- TGI [13]: > 100 µM
- TGI [14]: > 100 µM
- TGI [15]: > 100 µM
- TGI [16]: > 100 µM
- TGI [57]: > 100 µM
- TGI [17]: > 100 µM
- TGI [59]: > 100 µM
- TGI [18]: > 100 µM
- TGI [19]: > 100 µM
- TGI [20]: > 100 µM
- TGI [21]: > 100 µM
- TGI [22]: > 100 µM
- TGI [23]: > 100 µM
- TGI [24]: > 100 µM
- TGI [25]: > 100 µM
- TGI [26]: > 100 µM
- TGI [27]: > 100 µM
- TGI [28]: > 100 µM
- TGI [29]: > 100 µM
- TGI [30]: > 100 µM
- TGI [31]: > 100 µM
- TGI [58]: > 100 µM
- TGI [32]: > 100 µM
- TGI [33]: > 100 µM
- TGI [35]: > 100 µM
- TGI [36]: > 100 µM
- TGI [37]: > 100 µM
- TGI [38]: > 100 µM
- TGI [39]: > 100 µM
- TGI [40]: > 100 µM
- TGI [41]: > 100 µM
- TGI [42]: > 100 µM
- TGI [43]: > 100 µM
- TGI [44]: > 100 µM
- TGI [45]: > 100 µM
- TGI [46]: > 100 µM
- TGI [47]: > 100 µM
- TGI [48]: > 100 µM
- TGI [49]: > 100 µM
- TGI [50]: > 100 µM
- TGI [51]: > 100 µM
- TGI [52]: > 100 µM
- TGI [53]: > 100 µM
- TGI [54]: > 100 µM
- TGI [55]: > 100 µM

SMILES: COc1ccc2oc(=N)c(C(N)=S)cc2c1
- TGI [1]: 38.9 µM
- TGI [2]: 93.4 µM
- TGI [3]: 37.1 µM
- TGI [4]: 35.3 µM
- TGI [5]: > 100 µM
- TGI [6]: > 100 µM
- TGI [7]: 58.6 µM
- TGI [8]: > 100 µM
- TGI [56]: 50.7 µM
- TGI [9]: > 100 µM
- TGI [10]: > 100 µM
- TGI [11]: 93.7 µM
- TGI [12]: > 100 µM
- TGI [13]: > 100 µM
- TGI [14]: 38.3 µM
- TGI [15]: > 100 µM
- TGI [16]: > 100 µM
- TGI [57]: > 100 µM
- TGI [17]: > 100 µM
- TGI [59]: 51.7 µM
- TGI [18]: > 100 µM
- TGI [19]: > 100 µM
- TGI [20]: > 100 µM
- TGI [21]: > 100 µM
- TGI [22]: > 100 µM
- TGI [23]: 82.3 µM
- TGI [24]: 57.8 µM
- TGI [25]: 84.8 µM
- TGI [26]: 33.6 µM
- TGI [28]: > 100 µM
- TGI [29]: 54.1 µM
- TGI [30]: 48.6 µM
- TGI [31]: 32.9 µM
- TGI [58]: 33 µM
- TGI [32]: 99.3 µM
- TGI [33]: 43.5 µM
- TGI [34]: 32.8 µM
- TGI [35]: > 100 µM
- TGI [36]: 74.8 µM
- TGI [37]: 45.7 µM
- TGI [38]: > 100 µM
- TGI [39]: 67.5 µM
- TGI [40]: 34 µM
- TGI [41]: > 100 µM
- TGI [42]: 82.8 µM
- TGI [43]: 36.7 µM
- TGI [44]: 44.3 µM
- TGI [45]: 79.2 µM
- TGI [47]: > 100 µM
- TGI [48]: 95.7 µM
- TGI [49]: > 100 µM
- TGI [50]: > 100 µM
- TGI [51]: 64.3 µM
- TGI [52]: > 100 µM
- TGI [53]: 39.7 µM
- TGI [54]: 90.2 µM
